What all share (type): cell-based
The target of one assay is BRD4 (Homo sapiens, UniProt O60885). The assay can be described thus: Rescue of CS-JQ1-induced BRD4 degradation by co-treatment. To be noted: CS-JQ1 250 nM; BTZ, MLN7243, MLN4924 1 μM, JQ1 10 μM; MCF7 and MDA-MB-231 cells.
A further assay relates to MDA. The assay can be described thus: Cell viability, breast cancer cells MDA.
For a further assay, the system named is MDA-BR. The assay can be described thus: Cell viability, breast cancer cells MDA-BR.
The test system of a further assay is BT474. Kind of assay: Cell viability, breast cancer cells BT474. To be noted: Homo sapiens, BT-474.
The next assay concerns SJGBM2. Kind of assay: Cell viability, pediatric glioma SJGBM2.
In assay [1] the test system is DIPG XIII. Kind of assay: Cell viability, pediatric glioma DIPG XIII.
For a further assay, the system named is DIPG VI. Kind of assay: Cell viability, pediatric glioma DIPG VI.
The next assay relates to DIPG IV. The assay can be described thus: Cell viability, pediatric glioma DIPG IV.
For the next assay, the system named is DIPG 50. Kind of assay: Cell viability, pediatric glioma DIPG 50.
The subject of another assay is PHC (mice). Kind of assay: Cell viability, pediatric glioma PHC (mice). The settings on record: Mus musculus.
A further assay has as its system PKC (mice). Kind of assay: Cell viability, pediatric glioma PKC (mice). To be noted: Mus musculus.
Another assay has as its system XFM (mice). Kind of assay: Cell viability, pediatric glioma XFM (mice). The settings on record: Mus musculus.
For assay [2], the system named is MES83. The assay can be described thus: Cell viability, adult glioma MES83.
Another assay has as its system MES236. The assay can be described thus: Cell viability, adult glioma MES236.
In the next assay the test system is MGG29. Kind of assay: Cell viability, adult glioma MGG29.
The next assay concerns PN84. The assay can be described thus: Cell viability, adult glioma PN84.
In a further assay the test system is U87. The assay can be described thus: Cell viability, adult glioma U87. To be noted: Homo sapiens, U-87 MG.
A further assay has as its system MGG23. Kind of assay: Cell viability, adult glioma MGG23.
Another assay has as its system M005 (mice). Kind of assay: Cell viability, adult glioma M005 (mice). To be noted: Mus musculus.
For assay [3], the system named is DIPG XIII. The assay can be described thus: Cell viability, CS and JQ1 combination, DIPG XIII.
Assay [4] relates to MES83. Kind of assay: Cell viability, CS and JQ1 combination, MES83.

Each structure is given as a SMILES string. Some results are limits rather than exact numbers.

With `Cc1sc2c(c1C)C(c1ccc(Cl)cc1)=NC(CC(=O)OC(C)(C)C)c1nnc(C)n1-2` (stereo not drawn) [JQ-1], on BRD4, the “Rescue of CS-JQ1-mediated BRD4 degradation by co-treatment” value is listed as “reduced CS-JQ1 degradation efficiency”. The IC50 (commonly the point on the concentration scale where inhibition reaches its midpoint) was 6490 nM with MDA; more than 10000 nM in the assay on MDA-BR; more than 10000 nM in the assay on BT474; 1580 nM in the assay on SJGBM2; more than 10000 nM with DIPG XIII [1]; more than 10000 nM in the assay with DIPG VI. Also, the IC50 was 1520 nM with DIPG IV; more than 10000 nM with DIPG 50; 900 nM in the assay with PHC (mice); 786 nM with PKC (mice); more than 10000 nM in the assay with XFM (mice); 8120 nM in the assay on MES83 [2]. Further, the IC50 in the assay on MES236 was 3680 nM; in the assay with MGG29, more than 10000 nM; with PN84 it was 604 nM; in the assay on U87 it was 6950 nM; in the assay with MGG23 it was more than 10000 nM; in the assay on M005 (mice), 751 nM. Also, the half-maximal inhibitory concentration (IC50) was more than 10000 nM with DIPG XIII [3] and 6380 nM in the assay on MES83 [4].

The record behind these values is US20250034202A1 (The General Hospital Corporation, priority 2021, published 2025).
